Measurements from patent US11730722B2, “Corneal endothelium ECM therapeutic medicaments” (KYOTO PREFECTURAL PUBLIC UNIVERSITY CORPORATION, priority 2013, dated 2023).

Tests used:
Format in all cases: cell-based, human
iFECD [1] = experiment: HE-staining of extracellular matrix on Transwell with SB431542; conditions: iFECD on Transwell without serum, fixed one week later; FIG. 9; p<0.01
Experimental: The iHCEC and the iFECD were cultured in DMEM on Transwell without serum, one week after which they were fixed in a confluent state and HE-stained. The procedure is as described below. If required, deparaffinization (for example, with pure ethanol) and water washing were carried out, and the sample was immersed in hematoxylin from Omni for 10 minutes. Thereafter, water washing with running water was performed, and ammonia water was used for developing color for 30 seconds. Thereafter, water washing with running water for 5 minutes, staining for 2 minutes with a ten-fold diluted solution of eosin hydrochloride, dehydration, lucidification, and mounting were performed. […] Further, the iHCEC and the iFECD were cultured on Transwell Permeable Supports: 0.4 μm, six well plates (Costar, Cat no.: 3450) without serum, one week after which they were fixed in a confluent state and HE-stained. The HE-staining was carried out in accordance with the procedure of the above-described examples.

iFECD [2] = experiment: Immunostaining of extracellular matrix-constituting proteins with SB431542; conditions: FIG. 8
Experimental: For a tissue staining test, cultured cells were put in Lab-TekTM Chamber SlidesTM (NUNC A/S, Roskilde, Denmark), fixed with 4% formaldehyde for 10 minutes at room temperature (RT), and incubated with 1% bovine serum albumin (BSA) for 30 minutes. […] In order to examine expression of an extracellular matrix produced by cells, a 1:200 dilution of each of antibodies against collagen type I, collagen type IV, and Fibronectin was used to carry out. For a secondary antibody, a 1:2000 dilution of Alexa Fluor (registered trademark) 488 labeled, or Alexa Fluor (registered trademark) 594 labeled goat anti-mouse IgG (Life Technologies) was used. Cell nuclei were then stained with DAPI (Vector Laboratories, Inc., Burlingame, Calif.) or PI (Sigma-Aldrich). A slide was then observed under a fluorescence microscope (TCS SP2 AOBS; Leica Microsystems, Welzlar, Germany). Then, expression of collagen type I, collagen type IV, and Fibronectin was similarly examined by immunostaining. The immunostaining was carried out in accordance with the above-described examples, provided that the following antibodies were used as antibodies for collagen type I, collagen type IV, and Fibronectin. An antibody against collagen type I: Anti collagen type I (Rabbit polyclonal) ([…] antibodies and assays, Cat no.: 600-401-103S) An antibody against collagen type IV: collagen type IV (Rabbit polyclonal)(Abcam, Cat no.: ab6586) An antibody against Fibronectin: Anti-fibronectin (mouse monoclonal) (BD Biosciences, Cat no.: 610077)

iFECD [3] = experiment: Real-time PCR of gene expression with TGF-beta signal inhibiting agent SB431542; conditions: SB431542 0, 1, 3, 10 μM, FIG. 7, p<0.01
Experimental: Real-time PCR method: In addition, PCR was performed by a Taqman method for Snail1, Snail2, or ZEB1 in accordance with the following method. A Taqman probe was purchased from INVITROGEN. The mRNA amount of collagen type I, collagen type IV, and Fibronectin was examined by a real-time PCR method. RNEasy (QIAGEN, Catalog number: 74106) was used in extraction of the total RNA from cells. The extracted RNA was subjected to a reverse transcription reaction (42° C., 60 minutes) with ReverTra Ace (TOYOBO Co., Ltd., Catalog number: TRT-101), and collagen type I, collagen type IV, and Fibronectin were amplified with a reaction reagent TaqMan Fast Advanced mastermix (Applied Biosystems) using GAPDH as an internal standard. Probes (a labeled primer set available from Applied Biosystems) described below was used in the PCR reaction, which was performed in the StepOne™ (Applied Biosystems) real-time PCR system. It was then examined whether a TGF-beta signal inhibiting agent, SB431542, can be used to inhibit a TGF-beta signal and adjust extracellular matrix abnormality in a corneal endothelium. SB431542 was obtained from TOCRIS Corporation (Catalog number: 1614). The gene expression amount was confirmed by real-time PCR. Real-time PCR was carried out in accordance with the above-described examples. The following probes were used for collagen type I, collagen type IV, collagen type VIII, and Fibronectin. Collagen type I Hs00164004_ml COL1A1 Collagen type IV Hs00266327_ml COL4A1 Collagen type VIII Hs00697025_ml COL8A2 Fibronectin Hs01549976_ml FN1 GAPDH TaqMan® pre developed Assay Reagents Human GADPH (cat no.: 4333764F)

With `NC(=O)c1ccc(-c2nc(-c3ccc4c(c3)OCO4)c(-c3ccccn3)[nH]2)cc1` [SB431542, 4-[4-(1,3-benzodioxol-5-yl)-5-(2-pyridinyl)-1H-imidazol-2-yl]benzamide] the “overproduction of an extracellular matrix (thickness, HE-staining)” value (iFECD [1]) was “suppressed overproduction of an extracellular matrix in the iFECD to result in the normal level”, the “expression of Fibronectin in a protein level (immunostaining)” value (iFECD [2]) was “suppressed” and the “expression of collagen type I in a protein level (immunostaining)” value (iFECD [2]) was “suppressed”. The “expression of collagen type IV in a protein level (immunostaining)” value (iFECD [2]) was “suppressed”, the “expression of collagen type VIII in a protein level (immunostaining)” value (iFECD [2]) was “suppressed” and the “expression amount of Snail1 (real-time PCR)” value (iFECD [3]) was “significant decrease”. For the same molecule, the “expression amount of ZEB1 (real-time PCR)” value (iFECD [3]) was “significant decrease”, the “gene expression of Fibronectin (real-time PCR)” value (iFECD [3]; iFECD) was “significantly suppressed” and the “gene expression of collagen type I (real-time PCR)” value (iFECD [3]; iFECD) was “significantly suppressed”. The “gene expression of collagen type IV (real-time PCR)” value (iFECD [3]; iFECD) was “significantly suppressed” and the “gene expression of collagen type VIII (real-time PCR)” value (iFECD [3]; iFECD) was “significantly suppressed”.
